In publication PMC5291822 (Bioorganic & medicinal chemistry, 2016):

Biological target: T1, human GVIA iPLA2 (Homo sapiens, UniProt O60733)
T1 sequence (O60733 1-806): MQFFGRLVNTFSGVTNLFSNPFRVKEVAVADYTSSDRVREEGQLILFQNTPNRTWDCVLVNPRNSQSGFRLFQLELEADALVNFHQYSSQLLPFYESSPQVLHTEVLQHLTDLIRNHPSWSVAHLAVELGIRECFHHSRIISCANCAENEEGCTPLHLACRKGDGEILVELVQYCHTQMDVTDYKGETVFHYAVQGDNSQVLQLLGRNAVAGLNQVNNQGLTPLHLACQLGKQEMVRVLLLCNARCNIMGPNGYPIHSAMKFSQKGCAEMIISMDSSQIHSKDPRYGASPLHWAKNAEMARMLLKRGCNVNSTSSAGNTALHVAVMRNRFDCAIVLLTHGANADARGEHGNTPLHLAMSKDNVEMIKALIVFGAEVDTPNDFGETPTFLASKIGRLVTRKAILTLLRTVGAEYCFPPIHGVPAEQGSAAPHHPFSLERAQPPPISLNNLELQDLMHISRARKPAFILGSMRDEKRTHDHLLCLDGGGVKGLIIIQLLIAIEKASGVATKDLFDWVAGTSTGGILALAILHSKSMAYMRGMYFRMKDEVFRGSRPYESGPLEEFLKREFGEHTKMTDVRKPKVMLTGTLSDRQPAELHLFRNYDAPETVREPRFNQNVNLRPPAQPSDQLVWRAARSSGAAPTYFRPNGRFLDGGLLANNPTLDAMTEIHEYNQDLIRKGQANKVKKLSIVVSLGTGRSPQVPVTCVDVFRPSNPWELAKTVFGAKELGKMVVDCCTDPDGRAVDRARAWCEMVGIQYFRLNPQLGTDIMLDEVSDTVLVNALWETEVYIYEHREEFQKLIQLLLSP
Experiment: mixed micelle modified Dole assay, GVIA iPLA2
Format: biochemical
Conditions: for XI(50) GVIA iPLA2: mole fraction of inhibitor in total substrate interface giving 50% inhibition

SMILES | inhibitory activity on GVIA iPLA2 (in words) | IC50 | XI(50) GVIA iPLA2 | times more potent inhibition of GVIA iPLA2 than of GIVA cPLA2 (selectivity GVIA iPLA2 over GIVA cPLA2)
CCCC[C@H](NC(=O)C(=O)CCCCc1ccccc1)C(=O)NCC(=O)O [13a, (S)-2-(2-(2-Oxo-6-phenylhexanamido)hexanamido)acetic acid] | totally inactive | – | – | –
CCCC[C@H](NC(=O)C(=O)CCCCc1ccc2ccccc2c1)C(=O)NCC(=O)O [13b, (S)-2-(2-(6-(Naphthalen-2-yl)-2-oxohexanamido)hexanamido) acetic acid] | totally inactive | – | – | –
CCCC[C@@H](COCC(=O)O)NC(=O)C(=O)CCCCc1ccc(OC)cc1 [20d, (S)-2-((2-(6-(4-Methoxyphenyl)-2-oxohexanamido)hexyl)oxy)acetic acid] | totally inactive | – | – | –
CCCC[C@H](NC(=O)C(=O)CCCCc1ccc(OC)cc1)C(=O)NCC(=O)OC(C)(C)C [compound 12c, (S)-tert-Butyl 2-(2-(6-(4-methoxyphenyl)-2-oxohexanamido)hexanamido)acetate] | – | 6.6 µM | 0.012 mole fraction | –
CCCC[C@H](NC(=O)C(=O)CCCCc1ccc(OC)cc1)C(=O)NCCCC(=O)OC(C)(C)C [compound 12e, (S)-tert-Butyl 4-(2-(6-(4-methoxyphenyl)-2-oxohexanamido)hexanamido)butanoate] | – | 3.8 µM | 0.007 mole fraction | around 13 times
COc1ccc(CCCCC(=O)C(=O)N[C@@H](CC(C)C)C(=O)NCC(=O)OC(C)(C)C)cc1 [compound 22a, (S)-tert-Butyl 2-(2-(6-(4-methoxyphenyl)-2-oxohexanamido)-4-methylpentanamido)acetate] | – | 13 µM | 0.024 mole fraction | –
CCCC[C@H](NC(=O)C(=O)CCCCc1ccc(OC)cc1)C(=O)NCC(=O)OCc1ccccc1 [compound 31a, (S)-Benzyl 2-(2-(6-(4-methoxyphenyl)-2-oxohexanamido)hexanamido)acetate] | – | 14 µM | 0.026 mole fraction | –
